{
  "source": "patent US6555370B1",
  "about": "“Bifunctional selectable fusion genes” (Immunex Corporation, priority 1990, dated 2003)",
  "key": {"[1]": {"system": "NIH/3T3 cells", "experiment": "Long-term proliferation assay for 5-FC sensitivity", "assay_type": "cell-based", "conditions": "10-14 days", "procedure": "C. Negative Selection of Cells Containing the CD-neo (SEQ ID NO:3 Selectable Fusion Gene. To investigate the utility of the neo and CD-neo (SEQ ID NO:3 selectable fusion genes for negative selection, the colonies resulting from each transfection were pooled and expanded into cell lines for further analysis. The NIH/3T3 cells, or NIH/3T3 cells infected with the tgLS(+)neo or tgLS(+)CD-neo retroviruses were assayed for 5-FC^s using a long-term proliferation assay.\nFirst, 1×10^4 cells were seeded into 10 cm tissue culture dishes in complete growth medium and allowed to attach for 4 hours. The medium was then supplemented with various concentrations of G-418 and/or 5-FC (Sigma), after which the cells were incubated for a further 10-14 days. The medium was replaced every 2-4 days. The cells were then fixed in situ with 100% methanol and stained with methylene blue."}, "[2]": {"system": "cells expressing the HSV-I TK gene", "conditions": "cited from earlier work"}, "[3]": {"system": "transfected NIH/3T3 cells", "experiment": "Short term cell proliferation assay for GCV sensitivity", "assay_type": "cell-based", "procedure": "(§1) C. Negative Selection of Cells Containing the HyTK (SEQ ID NO:1 Selectable Fusion Gene. To investigate the utility of the HyTK (SEQ ID NO:1 selectable fusion gene for negative selection, the colonies resulting from each transfection (Table 1) were pooled and expanded into cell lines for further analysis. The Hm^r NIH/3T3 cell pools and the Hm^r and HAT^r Rat-2 cell pools were tested for GCV^s in a short term cell proliferation assay as follows.\n(§2) The transfected NIH/3T3 and Rat-2 cells (3×10^4 of each) were seeded into 9-cm tissue culture dishes in complete growth medium, and allowed to attach for 4 hours. The medium was then supplemented with various concentrations of GCV (Syntex, Palo Alto, Calif.), and the cells incubated for an additional 60 hours. At this time, the medium was removed, the attached cells were harvested by trypsinization and stained with trypan blue, and the viable cells were counted. Cell growth was expressed as a fraction of the cell growth observed in the absence of GCV. The results shown are the average of triplicate assays."}, "[4]": {"system": "transfected Rat-2 cells", "experiment": "Short term cell proliferation assay for GCV sensitivity", "assay_type": "cell-based", "procedure": "as §1, §2"}, "[5]": {"system": "murine sarcoma (K3T3)", "conditions": "syngeneic mice; Moolten and Wells 1990; cited from earlier work"}, "[6]": {"system": "NIH/3T3 cells", "experiment": "Long-term cell proliferation assay for GCV sensitivity (colony formation)", "assay_type": "cell-based", "procedure": "Uninfected NIH/3T3 cells and the infected NIH/3T3 cell pools were plated at relatively low cell density (10^4 cells/[…]) in complete growth medium and allowed to attach for 4 hours. The medium was then supplemented with hygromycin B (500 μg/ml), with or without 1 μM GCV, and the cells incubated for a period of 10 days. The medium was then removed and the cells were fixed in situ with 100% methanol and stained with methylene blue. […] Colonies of cells resistant to both Hm and GCV were obtained at a low frequency (10^−4-10^−3) from the retrovirus-infected populations (FIG. 6, plates e and g). The proviruses present in the cells that gave rise to these colonies had likely suffered point mutations, or very small deletions or rearrangements in the HSV-I TK moiety which eliminated the ability to phosphorylate GCV. Similar results were also obtained with Rat-2 cell lines infected with tgLS(+)HyTK or with tgLS(−)CMV/HyTK (data not shown)."}, "[7]": {"conditions": "NIH/3T3 cells infected with tgLS(+)CD-neo, 800 μg/ml G-418, 100 μg/ml 5-FC"}, "[8]": {"conditions": "NIH/3T3 cells infected with tgLS(+)neo, 800 μg/ml G-418, 100 μg/ml 5-FC"}, "[9]": {"conditions": "uninfected NIH/3T3 cells, 800 μg/ml G-418 or 100 μg/ml 5-FC"}},
  "note": "Entries after “also recorded” stand apart in the source; their conditions may differ.",
  "data": [
    {"molecule": "CN[C@@H]1[C@@H](O)[C@@H](O[C@@H]2[C@@H](O)[C@H](O[C@H]3O[C@H]([C@@H](C)O)[C@@H](O)[C@H](O)[C@H]3N)[C@@H](N)C[C@H]2N)OC[C@]1(C)O", "note": "[G-418]", "values": [
      {"measurement": "Sensitivity or resistance of cells to the drug", "setting": "[1]; [7]", "result": "resistant"},
      {"measurement": "Sensitivity or resistance of cells to the drug", "setting": "[1]; [8]", "result": "resistant"},
      {"measurement": "Sensitivity or resistance of cells to the drug", "setting": "[1]; [9]", "result": "sensitive"}
    ]},
    {"molecule": "Nc1nc(O)c2ncn(COC(CO)CO)c2n1", "note": "[GCV, ganciclovir]", "values": [
      {"measurement": "Regression of Abelson leukemia virus-induced lymphomas", "setting": "[2]; same transgenic mice, Moolten et al. 1990", "result": "full regression"},
      {"measurement": "Ablation of cells expressing the HSV-I TK gene", "setting": "[2]; transgenic animals, Heyman et al. 1989", "result": "selective ablation"},
      {"measurement": "inhibition at 1 µM", "setting": "[3]; Mus musculus, NIH3T3, NIH/3T3 cells transfected with tgCMV/HyTK, 1 μM GCV, 60 hours, read-out: Degree of inhibition of cell growth", "result": "~100", "unit": "%"},
      {"measurement": "Effect of GCV on cell growth", "setting": "[3]; NIH/3T3 cells transfected with tgCMV/HyTK", "result": "inhibits growth"},
      {"measurement": "Effect of GCV on cell growth", "setting": "[3]; NIH/3T3 cells transfected with tgCMV/hygro, 0.03 μM-1.0 μM GCV", "result": "does not inhibit growth; also recorded: not adversely affected"},
      {"measurement": "Sensitivity to GCV of Rat-2 cell pools transfected with tgCMV/HyTK relative to Rat-2 cells transfected with tgCMV/TK", "setting": "[4]; Rat-2, both Hm^r and HAT^r selected pools", "result": "over 30 fold"},
      {"measurement": "Effect of GCV on cell growth", "setting": "[4]; Rat-2 cells transfected with tgCMV/HyTK (selected for Hm^r or HAT^r), lowest concentration 0.03 μM GCV", "result": "inhibits growth; also recorded: almost completely inhibited"},
      {"measurement": "Effect of GCV on cell growth", "setting": "[4]; Rat-2 cells transfected with tgCMV/TK, higher concentrations required than for tgCMV/HyTK cells", "result": "inhibits growth; also recorded: inhibited"},
      {"measurement": "Effect of GCV on cell growth", "setting": "[4]; Rat-2 cells transfected with tgCMV/hygro, 0.03 μM-1.0 μM GCV", "result": "did not inhibit growth; also recorded: not inhibited"},
      {"measurement": "Eradication of tumors induced by the sarcoma cells", "setting": "[5]", "result": "completely eradicated"},
      {"measurement": "Growth as measured by colony formation", "setting": "[6]; NIH/3T3 cell pools infected with tgLS(+)HyTK or tgLS(−)CMV/HyTK, 500 μg/ml hygromycin B plus 1 μM GCV, 10 days", "result": "almost completely inhibited"},
      {"measurement": "Infected cells killed by GCV", "setting": "[6]; cells infected with HyTK retroviral vectors", "result": "> 99.9", "unit": "%"},
      {"measurement": "Frequency of colonies resistant to both Hm and GCV", "setting": "[6]; retrovirus-infected NIH/3T3 populations, 500 μg/ml Hm plus 1 μM GCV", "result": "10^−4-10^−3"},
      {"measurement": "Growth of uninfected cells in GCV", "setting": "[6]; uninfected NIH/3T3, 1 μM GCV, 10 days", "result": "resistant"}
    ]},
    {"molecule": "Nc1nc(=O)[nH]cc1F", "note": "[5-FC, 5-fluorocytosine]", "values": [
      {"measurement": "Sensitivity or resistance of cells to the drug", "setting": "[1]; [7]", "result": "sensitive"},
      {"measurement": "Sensitivity or resistance of cells to the drug", "setting": "[1]; [8]", "result": "resistant"},
      {"measurement": "Sensitivity or resistance of cells to the drug", "setting": "[1]; [9]", "result": "resistant"}
    ]},
    {"molecule": "CN[C@H]1C[C@@H](N)[C@H](O)[C@@H](O[C@@H]2O[C@H](CO)[C@H](O)[C@@H]3OC4(O[C@H]23)O[C@H]([C@@H](N)CO)[C@H](O)[C@H](O)[C@H]4O)[C@@H]1O", "note": "(stereo partly drawn) [Hm, hygromycin B]", "values": [
      {"measurement": "Growth of uninfected cells in Hm", "setting": "[6]; uninfected NIH/3T3, 500 μg/ml Hm, 10 days", "result": "completely killed"}
    ]}
  ]
}
